The source of these data is patent US9006450B2 (Boehringer Ingelheim International GmbH, priority 2010, dated 2015).

SMILES strings stand for the structures.

The test deals with T1, human ACC2 (Homo sapiens, UniProt O00763).
T1 construct: made in house; host or cells: insect cells (baculoviral expression system)
T1 sequence (O00763 129-2458 limits assumed): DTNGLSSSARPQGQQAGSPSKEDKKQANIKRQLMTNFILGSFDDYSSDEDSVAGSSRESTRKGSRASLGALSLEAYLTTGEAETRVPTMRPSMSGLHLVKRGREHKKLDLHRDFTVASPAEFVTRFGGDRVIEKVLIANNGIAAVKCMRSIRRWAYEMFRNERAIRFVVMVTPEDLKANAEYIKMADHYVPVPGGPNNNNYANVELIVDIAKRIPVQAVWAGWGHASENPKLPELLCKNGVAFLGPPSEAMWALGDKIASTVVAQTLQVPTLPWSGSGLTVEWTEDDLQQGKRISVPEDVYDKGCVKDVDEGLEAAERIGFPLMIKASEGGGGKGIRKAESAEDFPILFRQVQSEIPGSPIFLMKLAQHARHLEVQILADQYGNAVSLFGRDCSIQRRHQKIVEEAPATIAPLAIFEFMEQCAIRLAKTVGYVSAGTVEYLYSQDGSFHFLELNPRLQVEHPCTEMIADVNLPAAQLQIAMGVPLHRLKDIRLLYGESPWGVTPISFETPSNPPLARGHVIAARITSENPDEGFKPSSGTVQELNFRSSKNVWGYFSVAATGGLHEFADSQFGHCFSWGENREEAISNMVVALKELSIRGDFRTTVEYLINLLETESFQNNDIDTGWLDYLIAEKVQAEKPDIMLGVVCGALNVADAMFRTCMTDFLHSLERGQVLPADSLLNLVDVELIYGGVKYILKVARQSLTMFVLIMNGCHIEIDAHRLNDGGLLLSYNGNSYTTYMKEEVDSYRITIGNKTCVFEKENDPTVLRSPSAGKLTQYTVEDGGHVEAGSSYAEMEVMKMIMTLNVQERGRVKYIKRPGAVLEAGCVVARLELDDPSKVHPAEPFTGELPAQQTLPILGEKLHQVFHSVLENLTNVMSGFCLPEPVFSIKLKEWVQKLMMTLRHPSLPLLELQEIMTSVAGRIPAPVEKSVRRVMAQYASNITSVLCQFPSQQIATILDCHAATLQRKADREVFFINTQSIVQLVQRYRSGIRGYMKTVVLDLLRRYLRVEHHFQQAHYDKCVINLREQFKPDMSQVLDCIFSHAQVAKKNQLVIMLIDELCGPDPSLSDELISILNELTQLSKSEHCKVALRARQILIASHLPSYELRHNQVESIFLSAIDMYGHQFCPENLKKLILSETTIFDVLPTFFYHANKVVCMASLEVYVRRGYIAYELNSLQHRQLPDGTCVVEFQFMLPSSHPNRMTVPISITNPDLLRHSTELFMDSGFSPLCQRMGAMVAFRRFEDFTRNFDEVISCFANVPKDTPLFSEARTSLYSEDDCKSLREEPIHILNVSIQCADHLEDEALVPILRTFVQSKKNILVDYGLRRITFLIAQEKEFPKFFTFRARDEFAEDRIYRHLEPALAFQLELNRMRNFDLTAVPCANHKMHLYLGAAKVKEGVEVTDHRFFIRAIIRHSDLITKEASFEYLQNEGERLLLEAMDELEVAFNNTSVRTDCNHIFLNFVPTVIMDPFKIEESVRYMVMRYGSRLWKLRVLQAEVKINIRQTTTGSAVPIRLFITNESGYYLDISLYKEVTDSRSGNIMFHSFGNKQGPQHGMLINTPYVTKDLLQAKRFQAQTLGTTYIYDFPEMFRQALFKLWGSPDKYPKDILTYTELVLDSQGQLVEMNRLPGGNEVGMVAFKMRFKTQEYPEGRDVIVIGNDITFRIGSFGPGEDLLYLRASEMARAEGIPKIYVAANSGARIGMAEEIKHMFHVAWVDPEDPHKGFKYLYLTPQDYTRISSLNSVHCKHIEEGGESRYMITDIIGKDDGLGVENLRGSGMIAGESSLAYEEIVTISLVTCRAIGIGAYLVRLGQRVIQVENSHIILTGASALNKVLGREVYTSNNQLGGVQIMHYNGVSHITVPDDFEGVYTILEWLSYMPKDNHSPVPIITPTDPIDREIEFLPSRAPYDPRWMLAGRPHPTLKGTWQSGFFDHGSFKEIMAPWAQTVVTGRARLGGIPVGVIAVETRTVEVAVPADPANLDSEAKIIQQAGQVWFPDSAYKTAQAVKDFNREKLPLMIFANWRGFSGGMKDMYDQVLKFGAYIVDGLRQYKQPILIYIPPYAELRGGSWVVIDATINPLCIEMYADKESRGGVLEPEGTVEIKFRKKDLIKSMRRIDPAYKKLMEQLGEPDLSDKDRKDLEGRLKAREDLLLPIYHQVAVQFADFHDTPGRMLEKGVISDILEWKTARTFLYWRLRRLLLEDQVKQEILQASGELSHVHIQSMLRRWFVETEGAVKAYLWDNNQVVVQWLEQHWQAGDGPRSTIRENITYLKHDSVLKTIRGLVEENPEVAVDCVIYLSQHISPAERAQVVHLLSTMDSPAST
The test is described as follows: ACC2 assay, spectrophotometric 384 well assay (NADH-linked, coupled lactate dehydrogenase/pyruvate kinase). The class given is biochemical. The following applies: ACC2 assay, hACC2 construct lacking 128 N-terminal amino acids, 25° C., 340 nm; read-out: IC50. The method, boiled down:
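Human ACC2 lacking N-terminal 128 aa, baculovirus/insect-cell expressed, anion-exchange purified; 100 mM Tris pH 7.5, 10 mM citrate, 25 mM KHCO3, 1% DMSO. Started with 200 μM NADH and acetyl-CoA plus 500 μM ATP; PK/LDH-coupled A340 decrease read 15 min at 25° C. IC50 by nonlinear fit of low-control-subtracted slopes.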
On to `CCC(C)Oc1cc(N2CCC(c3ccc([C@H](C)NC(C)=O)cc3)CC2)ccn1` (stereo partly shown) [Example 19.13], for which the IC50 – broadly, the concentration needed to halve the response being measured – came out at 90 nM.
The figure for `COCC(C)Oc1cc(N2CCC(c3ccc([C@H](C)NC(C)=O)cc3)CC2)ccn1` (stereo partly shown) [Example 19.14] is 400 nM.
Then `CC(=O)N[C@@H](C)c1ccc(C2CCN(c3ccnc(OCC4(C)CC4)c3)CC2)cc1` [Example 19.15], with 80 nM; and `CC(=O)N[C@@H](C)c1ccc(C2CCN(c3ccnc(O[C@H]4CCOC4)c3)CC2)cc1` [Example 19.16], with 270 nM; and `CC(=O)N[C@@H](C)c1ccc(C2CCN(c3ccnc(OC4CCOCC4)c3)CC2)cc1` [Example 19.17], with 330 nM.
Then `CC(=O)N[C@@H](C)c1ccc(C2CCN(c3ccnc(OCC4CCOC4)c3)CC2)cc1` (stereo partly shown) [Example 19.18], with 340 nM.
For the compound `CC(=O)N[C@@H](C)c1ccc(C2CCN(c3ccnc(OCC(F)F)c3)CC2)cc1` [Example 19.19], the IC50 was 110 nM.
As for `CC(=O)N[C@@H](C)c1ccc(C2CCN(c3ccnc(O[C@@H]4CCOC4)c3)CC2)cc1` [Example 19.20], the IC50 was found to be 130 nM.
Then `CC(=O)N[C@@H](C)c1ccc(C2CCN(c3ccnc(OCCC(C)C)c3)CC2)cc1` [Example 19.21], with 220 nM; and `CCCOc1cc(N2CCC(c3ccc([C@H](C)NC(C)=O)cc3)CC2)ccn1` [Example 19.23], with 120 nM; and `CCC(CC)Oc1cc(N2CCC(c3ccc([C@H](C)NC(C)=O)cc3)CC2)ccn1` [Example 19.24], with 240 nM.
Regarding `CC(=O)N[C@@H](C)c1ccc(C2CCN(c3ccnc(OC4CC=CC4)c3)CC2)cc1` [Example 19.25], the half-maximal inhibitory concentration (IC50) worked out at 70 nM.
Then `CC(=O)N[C@@H](C)c1ccc(C2CCN(c3ccnc(OCC4CC4(F)F)c3)CC2)cc1` (stereo partly shown) [Example 19.26], with 150 nM; and `CC(=O)N[C@@H](C)c1ccc(C2CCN(c3ccnc(OC(C)C4CC4)c3)CC2)cc1` (stereo partly shown) [Example 19.27], with 410 nM.
Then `CC(=O)N[C@@H](C)c1ccc(C2CCN(c3ccnc(OCC4(C#N)CC4)c3)CC2)cc1` [Example 19.28], with 230 nM; and `CC(=O)N[C@@H](C)c1ccc(C2CCN(c3ccnc(OCc4ccon4)c3)CC2)cc1` [Example 19.29], with 920 nM.
In the case of `CC(=O)N[C@@H](C)c1ccc(C2CCN(c3ccnc(OC4Cc5ccccc5C4)c3)CC2)cc1` [Example 19.30], the concentration for half-maximal inhibition (IC50) was 540 nM.
The figure for `CC(=O)N[C@@H](C)c1ccc(C2CCN(c3ccnc(OCc4ccccc4F)c3)CC2)cc1` [Example 19.31] is 750 nM; for `CC(=O)N[C@@H](C)c1ccc(C2CCN(c3ccnc(OCc4cccc(F)c4)c3)CC2)cc1` [Example 19.32] it is 270 nM; for `CC(=O)N[C@@H](C)c1ccc(C2CCN(c3ccnc(OCc4ccc(F)cc4)c3)CC2)cc1` [Example 19.33] it is 400 nM.
On to `CC(=O)N[C@@H](C)c1ccc(C2CCN(c3ccnc(OCc4cccnc4)c3)CC2)cc1` [Example 19.34], for which the IC50 was determined as 520 nM.
Consider `COc1ccc(COc2cc(N3CCC(c4ccc([C@H](C)NC(C)=O)cc4)CC3)ccn2)cc1` [Example 19.35], for which the IC50 was determined as 27400 nM.
In the case of `CC(=O)N[C@@H](C)c1ccc(C2CCN(c3ccnc(OCc4ccccn4)c3)CC2)cc1` [Example 19.37], the IC50 stood at 1200 nM.
Then `CC(=O)N[C@@H](C)c1ccc(C2CCN(c3ccnc(OCc4ccncc4)c3)CC2)cc1` [Example 19.38], with 1200 nM; and `CC(C)Oc1cc(N2CCC(c3ccc([C@H](C)NC(=O)C4CC4)cc3)CC2)ncn1` [Example 20.1, (S)-Cyclopropanecarboxylic acid (1-{4-[1-(6-isopropoxy-pyrimidin-4-yl)-piperidin-4-yl]-phenyl}-ethyl)-amide], with 600 nM.
Then `C[C@H](NC(=O)C1CC1)c1ccc(C2CCN(c3cc(OC4CCC4)ncn3)CC2)cc1` [Example 20.2], with 220 nM; and `CC(C)Oc1cc(N2CCC(c3ccc([C@H](C)NC(=O)N(C)C)cc3)CC2)ncn1` [Example 20.3], with 180 nM; and `C[C@H](NC(=O)N(C)C)c1ccc(C2CCN(c3cc(OC4CCC4)ncn3)CC2)cc1` [Example 20.4], with 190 nM.
The figure for `COc1nc(N2CCC(c3ccc([C@H](C)NC(C)=O)cc3)CC2)ncc1-c1ccccc1` [Example 21.1, (S)—N-(1-{4-[1-(4-Methoxy-5-phenyl-pyrimidin-2-yl)-piperidin-4-yl]-phenyl}-ethyl)-acetamide] is 260 nM; for `CC(=O)N[C@@H](C)c1ccc(C2CCN(c3ncc(-c4ccccc4)c(C)n3)CC2)cc1` [Example 21.2, (S)—N-(1-{4-[1-(4-Methyl-5-phenyl-pyrimidin-2-yl)-piperidin-4-yl]-phenyl}-ethyl)-acetamide] it is 150 nM; for `CNc1nc(N2CCC(c3ccc([C@H](C)NC(C)=O)cc3)CC2)ncc1-c1ccccc1` [Example 21.3, (S)—N-(1-{4-[1-(4-Methylamino-5-phenyl-pyrimidin-2-yl)-piperidin-4-yl]-phenyl}-ethyl)-acetamide] it is 320 nM.
As for `CC(=O)N[C@@H](C)c1ccc(C2CCN(c3ccnc(-c4ccc5c(c4)OCO5)n3)CC2)cc1` [Example 22.1, (S)—N-(1-{4-[1-(2-Benzo[1,3]dioxol-5-yl-pyrimidin-4-yl)-piperidin-4-yl]-phenyl}-ethyl)-acetamide], the IC50 was determined as 1100 nM.
Regarding `CC(=O)N[C@@H](C)c1ccc(C2CCN(c3cc(-c4ccc5c(c4)OCO5)ncn3)CC2)cc1` [Example 22.2], the IC50 was found to be 2500 nM.
For `CC(=O)N[C@@H](C)c1ccc(C2CCN(c3nccc(-c4ccc5c(c4)OCO5)n3)CC2)cc1` [Example 22.3], the IC50 was found to be 1000 nM.
The figure for `CCOc1cccc(-c2nccc(N3CCC(c4ccc([C@H](C)NC(C)=O)cc4)CC3)n2)c1` [Example 22.4] is 390 nM.
The figure for `CC(=O)N[C@@H](C)c1ccc(C2CCN(c3ccnc(-c4ccc(C#N)s4)n3)CC2)cc1` [Example 22.5] is 940 nM; for `CCOc1ccc(-c2nccc(N3CCC(c4ccc([C@H](C)NC(C)=O)cc4)CC3)n2)cc1` [Example 22.6] it is 1200 nM; for `CCOc1cccc(-c2cc(N3CCC(c4ccc([C@H](C)NC(C)=O)cc4)CC3)ncn2)c1` [Example 22.7] it is 4100 nM.
Consider `CC(=O)N[C@@H](C)c1ccc(C2CCN(c3cc(-c4ccc(C#N)s4)ncn3)CC2)cc1` [Example 22.8], for which the IC50 was found to be 2900 nM.
Then `CCOc1ccc(-c2cc(N3CCC(c4ccc([C@H](C)NC(C)=O)cc4)CC3)ncn2)cc1` [Example 22.9], with 3100 nM; and `CCOc1cccc(-c2ccnc(N3CCC(c4ccc([C@H](C)NC(C)=O)cc4)CC3)n2)c1` [Example 22.10], with 240 nM; and `CC(=O)N[C@@H](C)c1ccc(C2CCN(c3nccc(-c4ccc(C#N)s4)n3)CC2)cc1` [Example 22.11], with 390 nM.
The figure for `CCOc1ccc(-c2ccnc(N3CCC(c4ccc([C@H](C)NC(C)=O)cc4)CC3)n2)cc1` [Example 22.12] is 3300 nM; for `CC(=O)N[C@@H](C)c1ccc(C2CCN(c3cc(-c4ccc5[nH]ccc5c4)ncn3)CC2)cc1` [Example 22.13] it is 440 nM; for `CC(=O)N[C@@H](C)c1ccc(C2CCN(c3ncc(-c4nc5ccccc5[nH]4)cn3)CC2)cc1` [Example 23.1, (S)—N-[1-(4-{1-[5-(1H-Benzoimidazol-2-yl)-pyrimidin-2-yl]-piperidin-4-yl}-phenyl)-ethyl]-acetamide] it is 290 nM.
Then `CCCNc1ccc(N2CCC(c3ccc([C@H](C)NC(C)=O)cc3)CC2)cc1` [Example 24.1, (S)—N-(1-{4-[1-(4-(Propylamino)phenyl)-piperidin-4-yl]-phenyl}-ethyl)-acetamide], with 1000 nM.
As to `CCNc1ccc(N2CCC(c3ccc([C@H](C)NC(C)=O)cc3)CC2)cc1` [Example 24.2], the IC50 came out at 1900 nM.
The figure for `CC(=O)N[C@@H](C)c1ccc(C2CCN(c3ccc(NCC(C)C)cc3)CC2)cc1` [Example 24.3] is 1100 nM; for `CC(=O)N[C@@H](C)c1ccc(C2CCN(c3ccc(NCC4CC4)cc3)CC2)cc1` [Example 24.4] it is 1300 nM.
The figure for `CC(=O)N[C@@H](C)c1ccc(C2CCN(c3nc(C(C)C)no3)CC2)cc1` [Example 25.1, (S)—N-(1-{4-[1-(3-Isopropyl-[1,2,4]oxadiazol-5-yl)-piperidin-4-yl]-phenyl}-ethyl)-acetamide] is 2700 nM; for `CCc1noc(N2CCC(c3ccc([C@H](C)NC(C)=O)cc3)CC2)n1` [Example 25.2] it is 10300 nM.
The figure for `CC(=O)N[C@@H](C)c1ccc(C2CCN(c3nc(-c4ccccc4)no3)CC2)cc1` [Example 25.3] is 950 nM; for `CC(=O)N[C@@H](C)c1ccc(C2CCN(c3noc(-c4ccccc4)n3)CC2)cc1` [Example 26.1, (S)—N-(1-{4-[1-(5-Phenyl-[1,2,4]oxadiazol-3-yl)-piperidin-4-yl]-phenyl}-ethyl)-acetamide] it is 1900 nM.
With `CCc1nc(N2CCC(c3ccc([C@H](C)NC(C)=O)cc3)CC2)no1` [Example 26.2], the IC50 worked out at 4100 nM.
`CC(=O)N[C@@H](C)c1ccc(C2CCN(c3noc(C(C)C)n3)CC2)cc1` [Example 26.3]: the IC50 was 710 nM.
The figure for `COCc1nc(N2CCC(c3ccc([C@H](C)NC(C)=O)cc3)CC2)no1` [Example 26.4] is 9100 nM; for `CC(=O)N[C@@H](C)c1ccc(C2CCN(c3ccc(OCC4CC4C)cc3)CC2)cc1` (stereo partly drawn) [Example 27.1, N-((1S)-1-(4-(1-(4-((2-methylcyclopropyl)methoxy)phenyl)-piperidin-4-yl)phenyl)-ethyl)acetamide] it is 150 nM; for `CC(=O)N[C@@H](C)c1ccc(C2CCN(c3ccc(OCC4(CC#N)CC4)cc3)CC2)cc1` [Example 27.3] it is 860 nM.
